From patent US12128035B2, “Activating pyruvate kinase R” (Novo Nordisk Health Care AG, priority 2021, dated 2024)

Test system: 2,3-DPG blood levels
Test: Phase 1 SAD/MAD: blood 2,3-DPG (LC-MS/MS) in healthy volunteers
Type: in vivo, human
Details: for median and mean reduction in 2,3-DPG, relative to baseline: all MAD dose levels
Method: In this study, SAD/MAD cohorts are randomized (3 to 1) to receive Compound 1 or placebo (P). Compound 1 was evaluated first in 4 healthy SAD cohorts and 4 healthy MAD (14-day dosing period) cohorts. Based on the safety, and PK/PD profile from HS, Compound 1 is then evaluated in 1 SCD SAD cohort and 2 SCD MAD cohorts. Specifically, based on the safety and pharmacokinetic/pharmacodynamics (PK/PD) profile in healthy volunteer studies, Compound 1 is evaluated in patients (pts) with SCD, first in a single dose (SD or SAD) cohort and then in multiple-dose (MD or MAD) cohorts (14-day and 12-week). Safety assessments include AEs, vital signs, ECGs and laboratory parameters. PK/PD blood sampling was performed on Day 1 (SAD/MAD) and Day 14 (MAD) and up to 72 h after the last dose and at the end-of-study visit. PD parameters included 2,3-DPG, ATP, and p50 in all cohorts with additional PD studies (including oxygen scan) performed only in the SCD cohorts. PD parameters included 2,3-DPG, ATP, p50, RBC deformability with controlled deoxygenation and reoxygenation (Lorrca® oxygen scan) and varying osmolality (Lorrca® osmoscan)). To maintain study blind, pt identifiers were removed when needed.
In the SAD cohorts, the subjects' blood 2,3-DPG levels were measured periodically after dosing by a qualified LC-MS/MS method for the quantitation of 2,3-DPG in blood. Decreased 2,3-DPG blood levels were observed 6 hours following a single dose of Compound 1 at all dose levels (earlier timepoints were not collected). Maximum decreases in 2,3-DPG levels generally occurred ˜24 hours after the first dose with the reduction sustained ˜48-72 hr postdose. Table 15 reports the median percentage change in 2,3-DPG blood levels, relative to baseline, measured over time in healthy volunteers after a single dose of Compound 1 (200 mg, 400 mg, 700 mg, or 1000 mg) or placebo. Table 16 reports the mean percentage change in 2,3-DPG blood levels, relative to baseline, measured over time in healthy volunteers after a single dose of Compound 1 (200 mg, 400 mg, 700 mg, or 1000 mg). Accordingly, the median and mean reduction in the concentration of 2,3-DPG, relative to baseline, was at least about 30% at all dose levels tested 24 hours after administration of the single dose.
In the MAD cohorts, the subjects' blood 2,3-DPG levels were measured periodically after dosing by a qualified LC-MS/MS method for the quantitation of 2,3-DPG in blood. […] Table 18B reports the mean percentage change in 2,3-DPG blood levels, relative to baseline, measured over time after the first dose on days 1 and 14 in healthy volunteers who received daily doses of Compound 1 (100 mg BID, 200 mg BID, 300 mg BID, or 400 mg QD) for 14 days. Accordingly, the median and mean reduction in the concentration of 2,3-DPG, relative to baseline, was at least about 25% at all dose levels tested 24 hours after administration of the first dose on day 1 and at least about 40% at all dose levels tested 24 hours after administration of the first dose on day 14.
The following procedures are employed for the analysis of ATP and 2,3-DPG in human whole blood K2EDTA using a protein precipitation extraction procedure and analysis by LC-MS/MS.
The following procedures are used for sample extraction prior to analysis via LC-MS/MS. 15.0 μL of the calibration standards, quality controls, matrix blanks, and samples are aliquoted into a 96-well plate. 50.0 μL of the internal standard spiking solution is added to all samples on the plate, with the exception of the matrix blank samples; 50.0 μL of water is added to the matrix blank samples. Subsequently, 150 μL of water is added to all samples on the plate. The plate is then covered and agitated by vortex at high speed for ten minutes, after which 750 μL of methanol is added to all samples on the plate. The plate is covered and agitated by vortex for approximately 1 minute. The plate is then centrifuged at approximately 3500 RPM at approximately 4° C. for five minutes. […]

[1] = HV single 400 mg, 48 h after dose
[2] = HV single 400 mg, 72 h after dose
[3] = HV single 700 mg, 0 h after dose
[4] = HV single 700 mg, 6 h after dose
[5] = HV single 700 mg, 8 h after dose
[6] = HV single 700 mg, 12 h after dose
[7] = HV single 700 mg, 16 h after dose
[8] = HV single 700 mg, 24 h after dose
[9] = HV single 700 mg, 36 h after dose
[10] = HV single 700 mg, 48 h after dose
[11] = HV single 700 mg, 72 h after dose
[12] = HV single 1000 mg, 0 h after dose
[13] = HV single 1000 mg, 6 h after dose
[14] = HV single 1000 mg, 8 h after dose
[15] = HV single 1000 mg, 12 h after dose
[16] = HV single 1000 mg, 16 h after dose
[17] = HV single 1000 mg, 24 h after dose
[18] = HV single 1000 mg, 36 h after dose
[19] = HV single 1000 mg, 48 h after dose
[20] = HV single 1000 mg, 72 h after dose

SMILES: O=C([C@H](CO)c1ccccc1)N1CC2=C(C1)CN(S(=O)(=O)c1cnc3c(c1)OCCO3)C2 (single isomer, unassigned) [Compound 1]
- Mean Percentage Change in 2,3-DPG Levels [1]: −34%
- Median Percentage Change in 2,3-DPG Levels [1]: −31%
- Mean Percentage Change in 2,3-DPG Levels [2]: −30%
- Median Percentage Change in 2,3-DPG Levels [2]: −30%
- Mean Percentage Change in 2,3-DPG Levels [3]: 0%
- Median Percentage Change in 2,3-DPG Levels [3]: 0.0%
- Mean Percentage Change in 2,3-DPG Levels [4]: −30%
- Median Percentage Change in 2,3-DPG Levels [4]: −29%
- Mean Percentage Change in 2,3-DPG Levels [5]: −29%
- Median Percentage Change in 2,3-DPG Levels [5]: −28%
- Mean Percentage Change in 2,3-DPG Levels [6]: −41%
- Median Percentage Change in 2,3-DPG Levels [6]: −41%
- Mean Percentage Change in 2,3-DPG Levels [7]: −46%
- Median Percentage Change in 2,3-DPG Levels [7]: −46%
- Mean Percentage Change in 2,3-DPG Levels [8]: −49%
- Median Percentage Change in 2,3-DPG Levels [8]: −49%
- Mean Percentage Change in 2,3-DPG Levels [9]: −47%
- Median Percentage Change in 2,3-DPG Levels [9]: −46%
- Mean Percentage Change in 2,3-DPG Levels [10]: −48%
- Median Percentage Change in 2,3-DPG Levels [10]: −48%
- Mean Percentage Change in 2,3-DPG Levels [11]: −32%
- Median Percentage Change in 2,3-DPG Levels [11]: −33%
- Mean Percentage Change in 2,3-DPG Levels [12]: 0%
- Median Percentage Change in 2,3-DPG Levels [12]: 0.0%
- Mean Percentage Change in 2,3-DPG Levels [13]: −18%
- Median Percentage Change in 2,3-DPG Levels [13]: −21%
- Mean Percentage Change in 2,3-DPG Levels [14]: −31%
- Median Percentage Change in 2,3-DPG Levels [14]: −33%
- Mean Percentage Change in 2,3-DPG Levels [15]: −35%
- Median Percentage Change in 2,3-DPG Levels [15]: −38%
- Mean Percentage Change in 2,3-DPG Levels [16]: −40%
- Median Percentage Change in 2,3-DPG Levels [16]: −40%
- Mean Percentage Change in 2,3-DPG Levels [17]: −44%
- Median Percentage Change in 2,3-DPG Levels [17]: −48%
- Mean Percentage Change in 2,3-DPG Levels [18]: −46%
- Median Percentage Change in 2,3-DPG Levels [18]: −47%
- Mean Percentage Change in 2,3-DPG Levels [19]: −43%
- Median Percentage Change in 2,3-DPG Levels [19]: −44%
- Mean Percentage Change in 2,3-DPG Levels [20]: −27%
- Median Percentage Change in 2,3-DPG Levels [20]: −24%
- lag of maximum decrease in blood 2,3-DPG behind maximum plasma concentration (HV single 200, 400, 700 or 1000 mg): about 24 hours
- time of maximal decrease in blood 2,3-DPG post-dose (HV single dose (400 mg), FIG. 41): 16 to 24 h
- mean maximum reduction in the concentration of 2,3-DPG (MAD study): at least 50%
- mean maximum reduction of 2,3-DPG, range (MAD study): 46.1-63.6%
- mean maximum reduction in the concentration of 2,3-DPG (SAD study): at least 40%
- mean maximum reduction of 2,3-DPG, range (SAD study): 35.4-56.1%
- median and mean reduction in 2,3-DPG, relative to baseline (24 hours after first dose on day 1): at least 25%
- median and mean reduction in 2,3-DPG, relative to baseline (24 hours after first dose on day 14): at least 40%
- median and mean reduction in the concentration of 2,3-DPG, relative to baseline (all SAD dose levels, 24 hours after the single dose): at least 30%
